A short description of data set [1]: Kinetic solubility determination (high throughput). It counts as physicochemical. Particulars: kinetic from dmso stock, sterile water, 5% DMSO, room temperature. As to the method: Test compounds (10 μL; 20 mM DMSO solution) were added to sterile water (190 μL) in triplicate and shaken at 300 rpm at room temperature. After 90 min. the test compounds were filtered by centrifuge (5 min. at 3000 rpm) to obtain the aqueous filtrate. Acetonitrile (20 μL) was dispensed into clean 96-well UV/VIS analysis plate and aqueous filtrate (80 μL) added and the plate analysed for test compound concentration using a Molecular Devices SPECTRAmax® plus microplate reader at the following wavelengths: (280, 300, 320, 340, 360, 800 nm). […] The diluted filtrate (80 μL) was then added to acetonitrile (20 μL) and the plate analysed. as previously.

Data set [2] in a line: Log D (pH7.4 shake flask). It counts as physicochemical. Particulars: pH 7.4; 1-octanol/phosphate buffer shake flask; read-out: mLogD (pH 7.4).

Values after ≈ are worked out from the molar mass of the structure shown.

`CC(C)(CO)c1cc(F)c(CC(=O)Nc2ccnc(C(=O)NC3(C(F)(F)F)CC3)c2)cc1O` [Example 2.6, 4-[[2-[2-Fluoro-5-hydroxy-4-(2-hydroxy-1,1-dimethyl-ethyl)phenyl]acetyl]amino]-N-[1-(trifluoromethyl)cyclopropyl]pyridine-2-carboxamide]: the solubility (kinetic) at 90 min in data set [1] is 142 µg/mL (≈ 302 µM). Besides, the logD in data set [2] came to 3.2.

`CC(C)(CCO)c1cc(F)c(CC(=O)Nc2ccnc(C(=O)NC3(C(F)(F)F)CC3)c2)cc1O` [Example 11, 4-[[2-[2-Fluoro-5-hydroxy-4-(3-hydroxy-1,1-dimethyl-propyl)phenyl]acetyl]amino]-N-[1-(trifluoromethyl)cyclopropyl]pyridine-2-carboxamide] gave a solubility (kinetic) at 90 min in data set [1] of 120 µg/mL (≈ 248 µM). Besides, the logD in data set [2] amounted to 3.7.

In turn, `CC(C)(CO)c1cc(Cl)c(CC(=O)Nc2ccnc(C(=O)NC3(C(F)F)CC3)c2)cc1O` [Example 15.3, 4-[[2-[2-Chloro-5-hydroxy-4-(2-hydroxy-1,1-dimethyl-ethyl)phenyl]acetyl]amino]-N-[1-(difluoromethyl)cyclopropyl]pyridine-2-carboxamide] returned a kinetic solubility at 90 min in data set [1] of 164 µg/mL (≈ 351 µM). Also, in data set [2], the logD came out at 3.4.

On to `O=C(Cc1cc(O)c(C(CO)C(F)(F)F)cc1F)Nc1ccnc(C(=O)NC2(C(F)(F)F)CC2)c1` (stereo not drawn) [Example 17, 4-[[2-[2-Fluoro-5-hydroxy-4-[2,2,2-trifluoro-1-(hydroxymethyl)ethyl]phenyl]acetyl]amino]N-[1-(trifluoromethyl)cyclopropyl]pyridine-2-carboxamide], for which, in data set [1], the solubility (kinetic) at 90 min was determined as 292 µg/mL (≈ 573 µM). Further, in data set [2], the logD stood at 3.3.

For the molecule `Cc1cc(C(C)(C)CO)c(O)cc1CC(=O)Nc1ccnc(C(=O)NC2(C(F)(F)F)CC2)c1` [Example 14.1, 4-[[2-[5-Hydroxy-4-(2-hydroxy-1,1-dimethyl-ethyl)-2-methyl-phenyl]acetyl]amino]-N-[1-(trifluoromethyl)cyclopropyl]pyridine-2-carboxamide], the solubility (kinetic) at 90 min in data set [1] stood at 154 µg/mL (≈ 331 µM). Also, in data set [2], the logD is 3.4.

For `CC(C)(C#N)NC(=O)c1cc(NC(=O)Cc2ccc(C(C)(C)C)c(O)c2)ccn1` [93.4 of PCT/GB2019/050209, reference compound], the kinetic solubility at 90 min in data set [1] is 37 µg/mL (≈ 93.8 µM). Moreover, the logD in data set [2] was more than 4.1.

The molecule `CC(C#N)NC(=O)c1cc(NC(=O)Cc2cc(O)c(C(C)(C)C)cc2F)ccn1` (stereo not drawn) [Example 1.3] showed a kinetic solubility at 90 min in data set [1] of 35 µg/mL (≈ 87.8 µM). Further, in data set [2], the logD is 3.9.

The molecule `CC(C)(O)c1cc(F)c(CC(=O)Nc2ccnc(C(=O)NC3(C(F)(F)F)CC3)c2)cc1O` [Example 2, 4-[[2-[2-Fluoro-5-hydroxy-4-(1-hydroxy-1-methyl-ethyl)phenyl]acetyl]amino]-N-[1-(trifluoromethyl)cyclopropyl]pyridine-2-carboxamide] displayed a solubility (kinetic) at 90 min in data set [1] of 152 µg/mL (≈ 334 µM). For the same molecule, the logD in data set [2] was determined as 3.1.

In data set [1], `CC(C)(CO)c1cc(Cl)c(CC(=O)Nc2ccnc(C(=O)NC3(C(F)(F)F)CC3)c2)cc1O` [Example 14, 4-[[2-[2-Chloro-5-hydroxy-4-(2-hydroxy-1,1-dimethyl-ethyl)phenyl]acetyl]amino]-N-[1-(trifluoromethyl)cyclopropyl]pyridine-2-carboxamide] displayed a solubility (kinetic) at 90 min of 90 µg/mL (≈ 185 µM). Also, in data set [2], the logD stood at 3.9.

The molecule `CCC(C)(O)c1cc(F)c(CC(=O)Nc2ccnc(C(=O)NC3(C(F)(F)F)CC3)c2)cc1O` (stereo not drawn) [Example 2.11, 4-[[2-[2-Fluoro-5-hydroxy-4-(1-hydroxy-1-methyl-propyl)phenyl]acetyl]amino]-N-[1-(trifluoromethyl)cyclopropyl]pyridine-2-carboxamide] returned a kinetic solubility at 90 min in data set [1] of 116 µg/mL (≈ 247 µM). Moreover, in data set [2], the logD was 3.6.

On to `CC(C)(C)NC(=O)c1cc(NC(=O)Cc2cc(O)c(C(C)(C)C)cc2F)ccn1` [91 of PCT/GB2019/050209, reference compound], for which the kinetic solubility at 90 min in data set [1] amounted to 10 µg/mL (≈ 24.9 µM). Also, the logD in data set [2] is more than 4.5.

On to `O=C(Cc1cc(O)c(C2(CO)CCC2)cc1F)Nc1ccnc(C(=O)NC2(C(F)(F)F)CC2)c1` [Example 2.13, 4-[[2-[2-Fluoro-5-hydroxy-4-[1-(hydroxymethyl)cyclobutyl]phenyl]acetyl]amino]-N-[1-(trifluoromethyl)cyclopropyl]pyridine-2-carboxamide], for which the kinetic solubility at 90 min in data set [1] stood at 67 µg/mL (≈ 139 µM). Also, the logD in data set [2] turned out to be 3.3.

For orientation: kinetic solubility means solubility judged after dilution from a stock solution rather than from solid.

Source of the values: patent US20220235006A1, “PYRIDINE DERIVATIVES AS TMEM16A MODULATORS FOR USE IN THE TREATMENT OF RESPIRATORY CONDITIONS” (TMEM16A LIMITED, priority 2019, published 2022).
